# What was measured:
# [1] = test system: patients with mild-to-moderate AD; settings: human, in vivo; cited from earlier work
# [2] = target: T1, human muscarinic M1 receptor (Homo sapiens, UniProt P11229); experiment: Alphascreen Surefire phospho-ERK1/2 assay, M1; assay type: cell-based; settings: for EC50: CHO cells, agonist 5 min, read-out: pEC50 M1 (converted)
# T1 construct: expressed in transfected cells
# T1 sequence (P11229 1-460): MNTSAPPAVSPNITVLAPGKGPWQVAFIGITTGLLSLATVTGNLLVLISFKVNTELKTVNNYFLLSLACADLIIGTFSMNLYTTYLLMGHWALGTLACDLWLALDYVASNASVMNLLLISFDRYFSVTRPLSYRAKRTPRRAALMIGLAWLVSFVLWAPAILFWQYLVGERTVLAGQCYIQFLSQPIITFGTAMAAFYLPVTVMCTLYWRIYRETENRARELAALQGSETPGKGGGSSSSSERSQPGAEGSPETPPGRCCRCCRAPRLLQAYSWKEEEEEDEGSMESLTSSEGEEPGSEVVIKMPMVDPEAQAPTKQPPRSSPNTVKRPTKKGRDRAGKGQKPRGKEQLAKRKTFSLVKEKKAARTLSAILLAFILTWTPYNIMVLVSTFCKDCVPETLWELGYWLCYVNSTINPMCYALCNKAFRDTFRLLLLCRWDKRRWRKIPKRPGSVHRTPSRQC
# Description: (§1) ERK1/2 phosphorylation is a downstream consequence of both Gq/11 and Gi/o protein coupled receptor activation, making it highly suitable for the assessment of M1, M3 (Gq/11 coupled) and M2, M4 receptors (Gi/o coupled), rather than using different assay formats for different receptor subtypes. CHO cells stably expressing the human muscarinic M1, M2, M3 or M4 receptor were plated (25K/well) onto 96-well tissue culture plates in MEM-alpha+10% dialysed FBS. Once adhered, cells were serum-starved overnight. Agonist stimulation was performed by the addition of 5 μL agonist to the cells for 5 min (37° C.). Media was removed and 50 μL of lysis buffer added.
# [3] = target: T2, human muscarinic M4 receptor (Homo sapiens, UniProt P08173); experiment: Alphascreen Surefire phospho-ERK1/2 assay, M4; assay type: cell-based; settings: CHO cells, agonist 5 min; read-out: pEC50 M4 (converted)
# T2 construct: expressed in transfected cells
# T2 sequence (P08173 1-479): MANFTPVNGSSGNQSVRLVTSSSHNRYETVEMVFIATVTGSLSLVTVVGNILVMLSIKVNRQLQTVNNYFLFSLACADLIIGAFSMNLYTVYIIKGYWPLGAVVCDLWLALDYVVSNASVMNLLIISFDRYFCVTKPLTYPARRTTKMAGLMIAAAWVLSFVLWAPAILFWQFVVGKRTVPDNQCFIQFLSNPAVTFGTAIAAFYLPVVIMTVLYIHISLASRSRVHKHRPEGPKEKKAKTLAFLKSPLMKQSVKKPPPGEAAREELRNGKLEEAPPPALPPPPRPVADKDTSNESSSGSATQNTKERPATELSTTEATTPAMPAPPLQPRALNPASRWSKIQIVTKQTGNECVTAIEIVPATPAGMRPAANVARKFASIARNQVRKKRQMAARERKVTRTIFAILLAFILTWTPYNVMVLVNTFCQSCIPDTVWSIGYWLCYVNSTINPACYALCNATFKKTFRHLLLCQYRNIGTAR
# Description: as §1
# [4] = target: T3, human muscarinic M2 receptor (Homo sapiens, UniProt P08172); experiment: Alphascreen Surefire phospho-ERK1/2 assay, M2; assay type: cell-based; settings: CHO cells, agonist 5 min
# T3 construct: expressed in transfected cells
# T3 sequence (P08172 1-466): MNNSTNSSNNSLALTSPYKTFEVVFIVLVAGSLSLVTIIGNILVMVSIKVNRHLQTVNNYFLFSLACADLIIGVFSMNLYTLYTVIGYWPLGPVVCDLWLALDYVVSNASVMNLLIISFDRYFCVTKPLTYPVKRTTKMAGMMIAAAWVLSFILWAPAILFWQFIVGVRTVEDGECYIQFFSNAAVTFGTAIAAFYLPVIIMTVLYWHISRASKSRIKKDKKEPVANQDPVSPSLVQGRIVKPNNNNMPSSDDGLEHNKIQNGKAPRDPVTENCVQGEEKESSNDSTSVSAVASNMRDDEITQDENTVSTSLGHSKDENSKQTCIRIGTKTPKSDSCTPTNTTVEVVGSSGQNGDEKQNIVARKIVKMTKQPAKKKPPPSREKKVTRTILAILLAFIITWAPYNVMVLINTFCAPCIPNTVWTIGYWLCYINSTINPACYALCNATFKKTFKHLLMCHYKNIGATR
# Description: as §1
# [5] = target: T4, human muscarinic M3 receptor (Homo sapiens, UniProt P20309); experiment: Alphascreen Surefire phospho-ERK1/2 assay, M3; assay type: cell-based; settings: CHO cells, agonist 5 min; read-out: pEC50 M3 (converted)
# T4 construct: expressed in transfected cells
# T4 sequence (P20309 whole entry): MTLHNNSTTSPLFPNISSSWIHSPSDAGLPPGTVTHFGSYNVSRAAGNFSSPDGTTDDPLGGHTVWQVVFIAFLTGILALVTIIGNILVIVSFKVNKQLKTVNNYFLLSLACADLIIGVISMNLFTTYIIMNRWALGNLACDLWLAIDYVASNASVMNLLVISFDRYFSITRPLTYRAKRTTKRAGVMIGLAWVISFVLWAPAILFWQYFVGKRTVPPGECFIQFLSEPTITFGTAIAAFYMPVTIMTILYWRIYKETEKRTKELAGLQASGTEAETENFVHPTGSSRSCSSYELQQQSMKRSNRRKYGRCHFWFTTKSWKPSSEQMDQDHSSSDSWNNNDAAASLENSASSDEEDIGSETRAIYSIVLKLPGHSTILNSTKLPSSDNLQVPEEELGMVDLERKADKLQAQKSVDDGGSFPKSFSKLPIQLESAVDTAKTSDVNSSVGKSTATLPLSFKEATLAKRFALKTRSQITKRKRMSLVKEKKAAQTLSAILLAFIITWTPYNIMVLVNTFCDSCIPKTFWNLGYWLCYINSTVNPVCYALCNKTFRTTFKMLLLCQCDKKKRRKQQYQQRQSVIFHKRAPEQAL
# Description: as §1
# [6] = test system: scopolamine-induced amnesia; experiment: Passive avoidance task; assay type: in vivo; settings: 3, 10, 30 mg/kg po
# Description: Studies were carried out as described previously by Foley et al., (2004) Neuropsychopharmacology. In the passive avoidance task scopolamine administration (1 mg/kg, i.p.) at 6 hours following training rendered animals amnesic of the paradigm. A dose range of 3, 10, and 30 mg/kg (po) free base, administered 90 minutes prior to the training period via oral gavage, was examined.
Structure (SMILES),incidence of cholinergic adverse events [1] [%],EC50 [2] [nM],EC50 [3] [nM],"Emax ([2]; CHO, read-out: % Emax cf. ACh, M1, CHO cells, agonist 5 min) [%]",EC50 ([4]; read-out: pEC50 M2 (converted)) [nM],"Emax ([4]; read-out: % Emax cf. ACh, M2) [%]",EC50 [5] [nM],effect on scopolamine-induced amnesia [6]
Cc1ccc(Cc2cc3c(=O)n([C@H]4CCCC[C@@H]4O)cnc3c3ccccc23)cn1 [MK-7622],21,–,–,–,–,–,–,–
"CCOC(=O)N1C2CCC1CC(N1CCC3(CC1)CNC(=O)C3)C2 (single isomer, unassigned) [Example 2-2 Isomer 2, ethyl 3-(3-oxo-2,8-diazaspiro[4.5]dec-8-yl)-8-azabicyclo[3.2.1]octane-8-carboxylate]",–,12.6,25.1,–,–,–,–,–
"CCOC(=O)N1C2CCC1CC(N1CCC3(CC1)CNC(=O)C3)C2 (single isomer, unassigned) [Example 2-2 Isomer 1, ethyl 3-(3-oxo-2,8-diazaspiro[4.5]dec-8-yl)-8-azabicyclo[3.2.1]octane-8-carboxylate]",–,79.4,200,99,> 20000,0,> 20000,reverse scopolamine-induced amnesia of the paradigm in a dose-dependent manner

# Reference: patent US20240165097A1, “PHARMACEUTICAL COMPOSITION FOR THE TREATMENT OF ALZHEIMER'S DISEASE OR DEMENTIA” (Heptares Therapeutics Limited, priority 2021, published 2024)
